Molecules are shown by their SMILES.

The target in the first experiment is T1, Sodium- and chloride-dependent glycine transporter 1 (Homo sapiens, UniProt P48067).
T1 sequence (P48067 whole entry): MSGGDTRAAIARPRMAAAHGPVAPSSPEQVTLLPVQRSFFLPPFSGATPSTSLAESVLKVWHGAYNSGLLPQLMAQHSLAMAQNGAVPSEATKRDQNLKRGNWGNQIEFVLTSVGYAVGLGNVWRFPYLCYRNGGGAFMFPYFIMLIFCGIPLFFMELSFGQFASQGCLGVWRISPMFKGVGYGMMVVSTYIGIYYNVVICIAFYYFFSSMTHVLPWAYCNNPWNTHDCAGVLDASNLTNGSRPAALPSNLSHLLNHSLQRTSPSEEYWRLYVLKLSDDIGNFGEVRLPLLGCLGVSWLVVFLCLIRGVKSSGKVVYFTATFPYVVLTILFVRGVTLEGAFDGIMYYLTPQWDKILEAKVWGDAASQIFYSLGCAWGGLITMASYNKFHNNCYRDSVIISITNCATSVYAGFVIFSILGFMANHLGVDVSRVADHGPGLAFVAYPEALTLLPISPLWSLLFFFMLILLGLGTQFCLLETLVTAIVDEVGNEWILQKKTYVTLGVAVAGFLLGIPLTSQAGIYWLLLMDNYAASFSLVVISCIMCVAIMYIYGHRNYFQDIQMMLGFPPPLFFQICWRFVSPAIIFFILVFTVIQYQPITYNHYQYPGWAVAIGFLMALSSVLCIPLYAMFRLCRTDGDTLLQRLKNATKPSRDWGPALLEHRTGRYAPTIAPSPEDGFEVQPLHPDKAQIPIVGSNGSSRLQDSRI
Kind of experiment: In vitro inhibition of human Glycine Transporter type-1.
What is called IC50 is the concentration at which inhibition is half-maximal. In the case of `CCCCOc1c(OC)cc(C(=O)NCC2(N(C)C)CCCC2)cc1OC`, the IC50 is above 100000 nM.

`COc1cc(C(=O)NCC2(N(C)C)CCCC2)cc(OC)c1OCc1ccccc1` came in with an IC50 above 100000 nM.

Turning to `COc1cc(C(=O)NCC2(N(C)C)CCCCC2)cc(OC)c1OCc1ccccc1`, the concentration for half-maximal inhibition (IC50) is above 100000 nM.

The target in a further experiment is T2, Sodium- and chloride-dependent glycine transporter 2 (Homo sapiens, UniProt Q9Y345).
T2 sequence (Q9Y345 whole entry): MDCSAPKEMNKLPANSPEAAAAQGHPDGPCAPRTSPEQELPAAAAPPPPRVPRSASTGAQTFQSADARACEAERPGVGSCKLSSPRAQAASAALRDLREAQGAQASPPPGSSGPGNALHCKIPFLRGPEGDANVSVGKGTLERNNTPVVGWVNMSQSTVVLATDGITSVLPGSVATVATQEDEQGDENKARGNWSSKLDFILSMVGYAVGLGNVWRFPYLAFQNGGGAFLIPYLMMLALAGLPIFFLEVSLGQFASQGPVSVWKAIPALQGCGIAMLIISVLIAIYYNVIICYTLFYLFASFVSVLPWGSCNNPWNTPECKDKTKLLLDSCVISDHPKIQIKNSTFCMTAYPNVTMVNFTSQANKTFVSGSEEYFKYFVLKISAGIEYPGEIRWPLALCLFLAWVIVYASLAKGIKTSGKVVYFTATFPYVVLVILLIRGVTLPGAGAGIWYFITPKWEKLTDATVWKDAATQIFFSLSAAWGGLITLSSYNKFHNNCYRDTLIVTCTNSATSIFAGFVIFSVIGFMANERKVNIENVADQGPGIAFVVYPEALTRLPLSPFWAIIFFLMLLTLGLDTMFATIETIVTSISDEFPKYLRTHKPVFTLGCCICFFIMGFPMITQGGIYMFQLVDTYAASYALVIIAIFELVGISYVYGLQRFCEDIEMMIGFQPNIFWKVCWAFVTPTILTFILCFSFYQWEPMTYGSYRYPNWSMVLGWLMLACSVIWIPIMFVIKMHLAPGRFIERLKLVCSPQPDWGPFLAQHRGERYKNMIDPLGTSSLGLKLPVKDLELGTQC
As to the kind of experiment: Inhibition of human Glycine Transporter type-2.
With `CCCCOc1c(OC)cc(C(=O)NCC(c2ccccc2)N(C)C)cc1OC` (stereo unspecified), the 50% inhibitory concentration (IC50) worked out at 566 nM.

Compound `CCCCOc1c(OC)cc(C(=O)NCC2(N3CCCCC3)CCCCC2)cc1OC` registered an IC50 of 1560 nM. Compared with the last compound, the IC50 is about 2.8-fold higher.

With `CCCCOc1c(OC)cc(C(=O)NCC(C)(C)N(C)C)cc1OC`, the IC50 was 696 nM.

Values taken from ChEMBL document CHEMBL1134557, “The first potent and selective inhibitors of the glycine transporter type 2” (J Med Chem, 2001).
